# Patent publication US20060084135A1, “Compositions for manipulating the lifespan and stress response of cells and organisms” (priority 2003, published 2006)
# Tests used:
# [1] = Stability in solution (decay of SIRT1 fold-stimulation of aged stock); assay type: physicochemical; conditions: ethanol stock solution; ethanol stock 2.5 mM, room temperature, glass vials, nitrogen; assayed at 50 μM; read-out: Stability in Solution t1/2 (converted)
# From the text: The fold-stimulation (ratio to control) obtained with a compound diluted from an aged stock solution was compared to an identical dilution from a stock solution freshly prepared from the solid compound. “t1/2” is defined as the time required for the SIRT1 fold-stimulation of the compound from the aged solution to decay to one-half of that obtained from a freshly prepared solution. […] Stocks were aged by storage at room […] temperature, in glass vials, under a nitrogen atmosphere.
# [2] = tested on: W303AR cells (rDNA locus RDN1); experiment: Ribosomal DNA recombination frequency; assay type: cell-based, S. cerevisiae
# [3] = tested on: S. cerevisiae; experiment: Yeast replicative lifespan; assay type: cell-based; conditions: 10 μM, wild type
# Experimental: Average lifespan was determined for wild type untreated (□), quercetin (◯) and piceatannol (●).
# [4] = tested on: S. cerevisiae; experiment: Yeast chronological lifespan; assay type: cell-based; conditions: 10 μM or 100 μM
# [5] = tested on: S. cerevisiae; experiment: Yeast replicative lifespan; assay type: cell-based
# [6] = target: T1, human recombinant SIRT2 (Homo sapiens, UniProt Q8IXJ6); experiment: SIRT2 deacetylation assay (Fluor de Lys-SIRT2); assay type: biochemical; conditions: increasing concentrations; 25 μM Fluor de Lys-SIRT2, 25 μM NAD+
# T1 sequence (Q8IXJ6 1-389): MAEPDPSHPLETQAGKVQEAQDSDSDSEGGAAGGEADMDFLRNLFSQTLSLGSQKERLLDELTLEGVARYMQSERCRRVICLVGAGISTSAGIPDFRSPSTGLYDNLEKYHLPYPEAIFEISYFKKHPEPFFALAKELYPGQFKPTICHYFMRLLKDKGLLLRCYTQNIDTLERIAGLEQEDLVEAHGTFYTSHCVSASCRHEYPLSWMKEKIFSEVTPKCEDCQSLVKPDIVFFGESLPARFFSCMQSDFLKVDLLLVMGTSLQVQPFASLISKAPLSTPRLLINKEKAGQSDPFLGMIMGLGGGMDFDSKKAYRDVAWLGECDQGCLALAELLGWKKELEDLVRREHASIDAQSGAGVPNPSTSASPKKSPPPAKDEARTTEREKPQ
# From the text: Yeast Sir2 and human SIRT1 are very homologous and differ from human SIRT2 by the addition of an N-terminal domain that is absent in SIRT2. […] Thus, based on the difference in structure of SIRT1 and SIRT2, i.e., the absence of an N-terminal domain, it is believed that the N-terminal domain of SIRT1 and Sir2 is necessary for activation by the compounds described herein. In particular, it is likely that the activator compounds described herein interact with the N-terminal portion of sirtuins. The N-terminal portion of SIRT1 that is necessary for the action of the compounds is from about amino acid 1 to about amino acid 176, and that of Sir2 is from about amino acid 1 to about amino acid 175.
smiles,measurement,setting,value
"Oc1ccc(/C=C/c2cc(O)cc(O)c2)cc1 [Resveratrol, 3,5,4′-Trihydroxy-trans-stilbene]",half-life at 50 µM,[1],59 h
same,rDNA recombination in a sir2 strain,[2]; sir2 strain,does not suppress
same,rDNA recombination in the presence of nicotinamide,[2]; with the Sir2 inhibitor nicotinamide,decreased
same,Effect on maximum lifespan,[3],significantly increased
same,Increase of average lifespan,[3],70%
same,Effect on chronological lifespan,[4],failed to extend
same,Extension of the lifespan of a pnc1 null mutant,[5]; pnc1 null mutant,nearly as well as it did wild type cells
same,Lifespan benefit of concentrations higher than 10 μM,"[5]; resveratrol 100 μM, 500 μM",no added lifespan benefit
same,Effect on the lifespan of a sir2 null mutant,[5]; sir2 null mutant,no effect
same,Effect on SIRT2 activity,[6],decrease
